Where a SMILES comes first, the peptide text is derived from it. Bridges are numbered along the chain shown (N, C = ends).
Test system: MCP-1, IL-6, IL-1β, IFN-γ, IL-10, TGF-β mRNA in lung tissue
Test: RT-qPCR of inflammatory factor mRNA in lung tissue of IPF mice
Format: in vivo, ICR mice
Conditions: tracheal spray once daily for 7 days, BLM-induced IPF mice
Experimental: Animal Model Preparation: The peptide powder was dissolved in pre-cooled saline and filtered to remove bacteria, then a spray needle was attached to a micro-syringe to aspirate the peptide solution. A total of 56 ICR mice were anesthetized by intramuscular injection of avertin. After anesthesia, the mice were fixed supine, the tongue was gently pulled, the vocal folds were exposed with a laryngoscope, the trachea was gently inserted, and the nebulized solution was rapidly pushed and injected. Each mouse was administered 100 μL of a 0.4 mg/mL bleomycin solution via tracheal spray, with the treatment performed once. Seven days after modeling, the mice were randomly grouped for ShSPI treatment based on weight loss scores. An additional 8 mice received the vehicle (normal saline) and were designated as the sham group.
A total of 48 suitable mice were randomly divided into five groups: the model control group (MC), the positive control group (PC), and the ShSPI low-dose groups (1 mg/kg), medium-dose groups (2 mg/kg), and high-dose groups (4 mg/kg).
Drug Administration: Starting on day 7 post-modeling, ShSPI peptide treatment groups were anesthetized with intramuscular avertin and received tracheal spray administration of the peptide. The low-dose group was treated with 1 mg/kg ShSPI peptide, the medium-dose group with 2 mg/kg, and the high-dose group with 4 mg/kg. The positive control group, without anesthesia, received 200 mg/kg pirfenidone (IPFD) via oral gavage. All groups were treated once daily for seven consecutive days.
The left lobe of the lung was collected from each mouse for total RNA extraction using RNAiso Plus, following the manufacturer’s instructions. The extracted RNA was quantified using a UV spectrophotometer. One microgram of total RNA was reverse transcribed into cDNA using a first-strand cDNA synthesis kit, following the provided protocol. Quantitative PCR (qPCR) was performed on a QuantStudio system using 2× SYBR Green qPCR Master Mix, and β-actin served as the internal control. The PCR reaction utilized a two-step protocol: 95 °C for 15 s, followed by 60 °C for 60 s, repeated for 40 cycles. Gene expression levels were calculated using the 2^−ΔΔCt method.

## CC[C@H](C)[C@@H]1NC(=O)[C@H](C)NC(=O)[C@@H]2CCCN2C(=O)[C@@H]2CSSC[C@H](NC(=O)[C@H](CO)NC(=O)[C@H](CC(N)=O)NC(=O)[C@H](CO)NC(=O)[C@H](Cc3ccc(O)cc3)NC(=O)[C@H](CCSC)NC(=O)[C@H](CCCNC(=N)N)NC(=O)CNC(=O)[C@H](Cc3ccccc3)NC(=O)[C@H](CCC(=O)O)NC(=O)[C@H](CC(=O)O)NC(=O)[C@H](Cc3ccccc3)NC(=O)[C@H](C(C)C)NC(=O)[C@@H]3CCCN3C(=O)[C@H](CCC(N)=O)NC(=O)[C@H](Cc3ccc(O)cc3)NC1=O)C(=O)N[C@@H](CCC(=O)O)C(=O)N[C@@H](CCSC)C(=O)N[C@@H](CCC(N)=O)C(=O)N[C@@H](CCCNC(=N)N)C(=O)N[C@@H](C)C(=O)N[C@@H](CCCNC(=N)N)C(=O)N[C@H](C(=O)N[C@@H](CC(C)C)C(=O)N[C@@H](CCCNC(=N)N)C(=O)NCC(=O)O)CSSC[C@H](N)C(=O)N1CCC[C@H]1C(=O)N[C@@H](CCC(N)=O)C(=O)N[C@@H](C(C)C)C(=O)N2 [ShSPI] (H-CPQVCPAIYQPVFDEFGRMYSNSCEMQRARCLRG-OH; disulfide 1-31, 5-24; N-terminus and C-terminus assumed)
ShSPI 1–4 mg/kg
  TGF-β mRNA content in mouse lung tissue: no significant impact
ShSPI high dose 4 mg/kg, β-actin control
  mRNA levels of pro-inflammatory cytokines (MCP-1, IL-6, IL-1β, IFN-γ) in lung tissue: restored these pro-inflammatory cytokine ShSPI mRNA levels to normal
ShSPI low dose 1 mg/kg, β-actin control
  IL-10 mRNA level in lung tissue: restored the anti-inflammatory cytokine IL-10 mRNA levels to normal

— paper PMC12116161, “An Elastase Inhibitor ShSPI from Centipede Attenuates Bleomycin-Induced Pulmonary Fibrosis” (Toxins, 2025)
